Assay [1] addresses T1, Prostaglandin G/H synthase 2 (Canis lupus familiaris, UniProt Q8SPQ9).
T1 sequence (Q8SPQ9 whole entry): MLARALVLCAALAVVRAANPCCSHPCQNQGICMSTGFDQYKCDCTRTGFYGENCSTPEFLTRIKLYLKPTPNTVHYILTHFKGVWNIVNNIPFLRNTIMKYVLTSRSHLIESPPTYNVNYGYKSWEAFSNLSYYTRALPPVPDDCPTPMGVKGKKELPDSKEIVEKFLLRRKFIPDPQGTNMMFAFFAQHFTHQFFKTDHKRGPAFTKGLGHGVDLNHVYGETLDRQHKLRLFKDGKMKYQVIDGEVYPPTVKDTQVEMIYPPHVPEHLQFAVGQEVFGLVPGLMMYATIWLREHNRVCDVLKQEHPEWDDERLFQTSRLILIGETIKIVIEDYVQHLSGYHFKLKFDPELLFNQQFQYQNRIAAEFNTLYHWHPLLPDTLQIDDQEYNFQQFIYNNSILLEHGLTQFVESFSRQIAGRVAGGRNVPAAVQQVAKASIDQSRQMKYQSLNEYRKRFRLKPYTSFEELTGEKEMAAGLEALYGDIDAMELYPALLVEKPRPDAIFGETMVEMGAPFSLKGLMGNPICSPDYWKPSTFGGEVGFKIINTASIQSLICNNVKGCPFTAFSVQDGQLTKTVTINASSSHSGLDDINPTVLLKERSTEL
Briefly: Inhibition of COX2 in dog whole blood assessed as LPS-induced PGE2 production.

Assay [2] concerns the target T2, Prostaglandin G/H synthase 2 (Homo sapiens, UniProt P35354).
T2 sequence (P35354 whole entry): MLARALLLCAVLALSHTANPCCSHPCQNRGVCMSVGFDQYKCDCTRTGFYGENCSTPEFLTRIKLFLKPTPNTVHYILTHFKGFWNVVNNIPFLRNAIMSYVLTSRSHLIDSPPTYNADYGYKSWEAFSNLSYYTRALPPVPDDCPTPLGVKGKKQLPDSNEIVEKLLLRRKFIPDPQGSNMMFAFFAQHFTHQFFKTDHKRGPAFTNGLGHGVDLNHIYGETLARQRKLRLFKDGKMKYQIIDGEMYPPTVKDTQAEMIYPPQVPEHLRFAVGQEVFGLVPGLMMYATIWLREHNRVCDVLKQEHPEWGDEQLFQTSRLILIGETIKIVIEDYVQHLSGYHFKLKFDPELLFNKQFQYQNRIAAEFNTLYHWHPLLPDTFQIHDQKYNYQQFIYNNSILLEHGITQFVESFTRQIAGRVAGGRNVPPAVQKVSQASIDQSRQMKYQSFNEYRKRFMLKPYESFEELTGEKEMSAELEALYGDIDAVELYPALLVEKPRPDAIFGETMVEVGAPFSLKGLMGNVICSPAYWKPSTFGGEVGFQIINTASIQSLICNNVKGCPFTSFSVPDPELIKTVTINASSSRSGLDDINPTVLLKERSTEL
Briefly: Inhibition of COX2 in human whole blood assessed as LPS-induced PGE2 production incubated 15 mins prior to LPS challenge measured after 24 hrs by EIA.

Assay [3] deals with T2, Prostaglandin G/H synthase 2. Briefly: Inhibition of COX2 in human whole blood assessed as PGE2 level incubated for 15 mins prior to substrate addition measured after 10 mins by ELISA. On the technique in general: ELISA stands for enzyme-linked immunosorbent assay.
The target of assay [4] is T3, Prostaglandin G/H synthase 2 (Rattus norvegicus, UniProt P35355).
T3 sequence (P35355 whole entry): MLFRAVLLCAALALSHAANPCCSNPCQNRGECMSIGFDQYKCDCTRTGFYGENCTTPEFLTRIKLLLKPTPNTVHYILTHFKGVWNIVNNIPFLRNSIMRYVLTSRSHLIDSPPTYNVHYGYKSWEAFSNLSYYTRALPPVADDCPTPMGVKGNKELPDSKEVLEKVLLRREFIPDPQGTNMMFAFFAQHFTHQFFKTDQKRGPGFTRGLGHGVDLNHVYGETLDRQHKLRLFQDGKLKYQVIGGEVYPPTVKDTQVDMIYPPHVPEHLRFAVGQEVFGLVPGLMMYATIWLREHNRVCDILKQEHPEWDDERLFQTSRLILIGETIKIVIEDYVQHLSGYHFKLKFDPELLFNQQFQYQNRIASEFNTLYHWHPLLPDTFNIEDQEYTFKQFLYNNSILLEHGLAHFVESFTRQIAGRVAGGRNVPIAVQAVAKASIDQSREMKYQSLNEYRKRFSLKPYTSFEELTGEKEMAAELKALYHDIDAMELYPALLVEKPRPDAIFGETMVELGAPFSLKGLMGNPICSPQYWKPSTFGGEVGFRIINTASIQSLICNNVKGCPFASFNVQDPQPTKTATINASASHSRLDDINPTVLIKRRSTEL
Briefly: Inhibition of COX2 in rat synovial fibroblast assessed as inhibition of IL-1-mediated PGE2 production.

The target in assay [5] is T2, Prostaglandin G/H synthase 2. Briefly: Inhibition of COX2 in human fetal fibroblast assessed as inhibition of IL-1beta-mediated PGE2 production after 50 mins by ELISA.

The source of these data is BindingDB's records for doi:10.1016/j.bmcl.2012.10.040 (Pfizer, 2013).

SMILES strings stand for the structures.

What is called IC50 is the concentration needed to halve the response being measured. As for `O=C(N[C@H]1CCC[C@@H]1OCc1ccccc1)C1CCN(c2nc3cc(Cl)ccc3o2)CC1`, the half-inhibitory concentration (IC50) was 1.23 µM in assay [1]; 0.934 µM in assay [2]; 7.56 µM in assay [3]; greater than 30 µM in assay [4]; 0.035 µM in assay [5].

On to `O=C(NC1CCCC1)C1CCN(c2nc3cc(Cl)ccc3o2)CC1`, for which the IC50 in assay [5] was 1.01 µM.

For the molecule `O=C(N[C@@H]1CCC[C@H]1OCc1ccccc1)C1CCN(c2nc3cc(Cl)ccc3o2)CC1`, the IC50 came out at 27.4 µM in assay [3] and 0.296 µM in assay [5].

Regarding `O=C(N[C@H]1CCC[C@H]1OCc1ccccc1)C1CCN(c2nc3cc(Cl)ccc3o2)CC1`, the IC50 is 76.6 µM in assay [3] and 0.618 µM in assay [5].

Take `O=C(N[C@H]1CCC[C@@H]1COc1ccccc1)C1CCN(c2nc3cc(Cl)ccc3o2)CC1`: the IC50 is greater than 33.6 µM in assay [3] and 0.085 µM in assay [5].

In the case of `O=C(N[C@H]1CC[C@@H](CO)CC1)C1CCN(c2nc3cc(Cl)ccc3o2)CC1`, the IC50 was 11.1 µM in assay [3] and 1.26 µM in assay [5].

Take `O=C(N[C@H]1CC[C@H](CO)CC1)C1CCN(c2nc3cc(Cl)ccc3o2)CC1`: the IC50 in assay [5] is greater than 10 µM.
